In brackets after ≈: the same amount, converted by molar mass. Like-named read-outs stand apart in the source and are kept apart here.
Key:
[1] = system: P. aeruginosa NMI 7197/19; format: cell-based, Pseudomonas aeruginosa; conditions: NMI 7197/19, 20 h
Description: (§1) MIC values of the peptidomimetics were evaluated by using the modified Hancock lab protocol in non-binding polystyrene microtiter plates. Bacterial suspensions of ~5 × 10^5 CFU/mL in Mueller-Hinton broth (Difco, Sparks, MD, USA) were prepared with Mg^2+ and Ca^2+ concentrations of 4 mg/L each. The compounds were dissolved in H2O and diluted in 0.01% acetic acid, 0.2% BSA (final concentration). Aliquots (11 µL) of test compounds were then transferred to wells containing bacterial suspensions (100 µL). Low-binding sterile tubes and tips (Axygen, Union City, CA, USA) were used for preparation and transfer of the solutions of the compounds. Following incubation for 20 h of the covered plates at 35 °C (±2 °C) with circular shaking at 180 rpm, the MICs were read.

P. aeruginosa PAO1 = format: cell-based, Pseudomonas aeruginosa
Description: as §1

E. faecalis ATCC 29212 = format: cell-based; conditions: ATCC 29212, 20 h
Description: as §1

K. pneumoniae ATCC 13883 = format: cell-based; conditions: ATCC 13883, 20 h
Description: as §1

S. aureus ATCC 29213 = format: cell-based, Staphylococcus aureus; conditions: ATCC 29213, 20 h
Description: as §1

E. coli ATCC 25922 = format: cell-based, Escherichia coli; conditions: ATCC 25922, 20 h
Description: as §1

E. coli NMI 3371/16 = format: cell-based, Escherichia coli; conditions: NMI 3371/16, 20 h
Description: as §1

E. coli NMI 3898/15 = format: cell-based, Escherichia coli; conditions: NMI 3898/15, 20 h
Description: as §1

[2] = Hydrophobicity by retention in analytical RP-HPLC (% MeCN at peak elution); format: physicochemical; conditions: for % MeCN at Elution, Aeris Peptide: Phenomenex Aeris Peptide XB-C18 column; for % MeCN at Elution, Aeris Peptide / % MeCN at Elution, Luna Omega / % MeCN at Elution, Supelco Discovery: gradient 0→60% B during 15 min; for % MeCN at Elution, Luna: Phenomenex Luna C18(2) column, RP-HPLC gradient 0→60% B during 15 min, relative hydrophobicity; for % MeCN at Elution, Luna Omega: Phenomenex Luna Omega Polar C18 column; for % MeCN at Elution, Supelco Discovery: Supelco Discovery BIO Wide pore C18 column
Description: For each peptide/β-peptoid hybrid oligomer, the retention time in RP-HPLC was measured on four different columns (details shown in Table 2): Phenomenex Luna C18(2) column (recommended for hydrophobic compounds [49]), Phenomenex Luna Omega Polar C18 column (recommended for both very polar and non-polar compounds [50]) as well as Phenomenex Aeris Peptide XB-C18 [51] and Sigma-Aldrich Supelco Discovery BIO Wide pore C18 [52] columns, which both are recommended for analysis of peptides. The retention times of the compounds on each column were used to calculate the acetonitrile concentration at peak elution (denoted merely as % MeCN; Table 1). As expected, the % MeCN for each compound varied somewhat between the four columns.
Starting materials and solvents were acquired from commercial suppliers (Iris Biotech, Markredwitz, Germany; Fluorochem, Hadfield, UK; and Merck, Darmstadt, Germany) and used without further purification. Water used for analytical and preparative high-performance liquid chromatography (HPLC) was filtered through a 0.22-μm capsule filter using an Evoqua LaboStar Pro TWF UV system. Purity and retention time of each peptidomimetic were determined by analytical HPLC by using a Phenomenex Luna Omega Polar C18 column (150 × 4.6 mm; particle size: 3 μm; pore size: 100 Å) on a Shimadzu Prominence and Shimadzu Nexera system using an aqueous acetonitrile (MeCN, VWR, Søborg, Denmark) gradient with 0.1% trifluoroacetic acid (TFA, Iris Biotech, Markredwitz, Germany) added (eluent A: 5:95 MeCN–H2O + 0.1% TFA, eluent B: 95:5 MeCN–H2O + 0.1% TFA); a flow rate of 0.8 mL/min was used. For elution of peptidomimetics, a linear gradient of 0% to 60% B during 15 min was used with UV detection at λ = 220 nm. […] Retention time of each peptidomimetic was also determined by using a Phenomenex Luna C18(2) column (150 × 4.6 mm; particle size: 3 μm; pore size: 100 Å), a Phenomenex Aeris Peptide XB-C18 column (150 × 4.6 mm; particle size: 3.6 μm; pore size: 100 Å), and a Sigma-Aldrich Supelco Discovery BIO Wide pore C18 column (150 × 4.6 mm, particle size: 3 µm; pore size: 300 Å). For each peptidomimetic, the percentage of MeCN at peak elution was calculated from the retention time by using the following formula:(1) %MeCN =0.95 (0.6Rt/15 min)+0.05 (1−0.6Rt/15 min)

[3] = Determination of hemolytic activity; format: cell-based; conditions: red blood cell suspension in PBS buffer, human red blood cells at 400 µg/mL, 37 °C
Description: The lysis of human red blood cells was measured almost as previously described, albeit with modifications. In brief, a suspension of freshly drawn human red blood cells (hRBCs) was washed three times with PBS buffer and centrifuged two times for 5 min at 2500 rpm. A two-fold serial dilution of compounds in PBS buffer was prepared. Plates (conical-bottomed 96-well plates) with three replicate wells per dilution, each containing 1% red blood cell suspension, were prepared and dosed with the test compound to achieve a final concentration of 400 μg/mL in a total volume of 100 μL. The plates were incubated (37 °C) for 60 min with mild agitation, and then the cells were pelleted by centrifugation at 1500 rpm for 5 min. The supernatants (50 μL) were then transferred to a fresh 96-well plate, and the concentration of hemoglobin was detected by measuring the OD at 405 nm. The OD of cells incubated with 1% SDS defined 100% hemolysis, while the OD of cells incubated with PBS buffer defined 0% hemolysis. The concentration tested was 400 μg/mL (only average values are stated in Table 5). The percent hemolysis was calculated by using the formula:(3) Hemolysis (%)=100×[Asample−Aneg.control/Apos.control−Aneg.control]

A. baumannii ATCC 19606 = format: cell-based, Acinetobacter baumannii; conditions: ATCC 19606, 20 h
Description: as §1

A. baumannii NMI 3658/17 = format: cell-based, Acinetobacter baumannii; conditions: NMI 3658/17, 20 h
Description: as §1

MIC, P. aeruginosa NMI 7197/19 [1] | MIC, PA (P. aeruginosa PAO1; PAO1, 20 h) | MIC, EF (E. faecalis ATCC 29212) | MIC, KP (K. pneumoniae ATCC 13883) | MIC, SA (S. aureus ATCC 29213) | MIC, EC (E. coli ATCC 25922) | MIC, E. coli NMI 3371/16 (E. coli NMI 3371/16) | MIC, E. coli NMI 3898/15 (E. coli NMI 3898/15) | % MeCN at Elution, Aeris Peptide [2] | % MeCN at Elution, Luna [2] | % MeCN at Elution, Luna Omega [2] | % MeCN at Elution, Supelco Discovery [2] | MIC, AB (A. baumannii ATCC 19606) | MIC, A. baumannii NMI 3658/17 (A. baumannii NMI 3658/17) | MIC, PA (P. aeruginosa PAO1; P. aeruginosa PAO1 (WT)) | Structure (SMILES) | hemolysis at 60 min [3]
>64 µg/mL | 32 µg/mL (≈ 15.9 µM) | >64 µg/mL | >64 µg/mL | 32 to 64 µg/mL | 8 µg/mL (≈ 3.99 µM) | 8 µg/mL (≈ 3.99 µM) | 16 µg/mL (≈ 7.97 µM) | 39.4 % MeCN | 41.4 % MeCN | 41.9 % MeCN | 41.5 % MeCN | 4 µg/mL (≈ 1.99 µM) | 4 µg/mL (≈ 1.99 µM) | – | NCCCC[C@H](NC(=O)CCN(Cc1ccc(F)cc1)C(=O)[C@H](CCCCN)NC(=O)CCN(Cc1ccc(F)cc1)C(=O)[C@H](CCCCN)NC(=O)CCN(Cc1ccc(F)cc1)C(=O)[C@H](CCCCN)NC(=O)CCN(Cc1ccc(F)cc1)C(=O)[C@H](CCCCN)NC(=O)CCN(Cc1ccc(F)cc1)C(=O)[C@H](CCCCN)NC(=O)COCCOCCN)C(=O)N(CCC(N)=O)Cc1ccc(F)cc1 [Compound 2, H-sPEG2-[X]6-NH2] | 2.4%
>64 µg/mL | 32 to 64 µg/mL | >64 µg/mL | >64 µg/mL | – | 8 µg/mL (≈ 3.79 µM) | 8 µg/mL (≈ 3.79 µM) | 16 µg/mL (≈ 7.59 µM) | 39.6 % MeCN | 41.9 % MeCN | 42.4 % MeCN | 42.6 % MeCN | 4 to 8 µg/mL | 4 to 8 µg/mL | – | NCCCC[C@H](NC(=O)CCN(Cc1ccc(F)cc1)C(=O)[C@H](CCCCN)NC(=O)CCN(Cc1ccc(F)cc1)C(=O)[C@H](CCCCN)NC(=O)CCN(Cc1ccc(F)cc1)C(=O)[C@H](CCCCN)NC(=O)CCN(Cc1ccc(F)cc1)C(=O)[C@H](CCCCN)NC(=O)CCN(Cc1ccc(F)cc1)C(=O)[C@H](CCCCN)NC(=O)CCOCCOCCOCCOCCN)C(=O)N(CCC(N)=O)Cc1ccc(F)cc1 [Compound 3, H-sPEG4-[X]6-NH2] | 8.1%
>64 µg/mL | – | >64 µg/mL | >64 µg/mL | >64 µg/mL | 16 µg/mL (≈ 6.79 µM) | 8 to 16 µg/mL | 32 µg/mL (≈ 13.6 µM) | 40.0 % MeCN | 42.2 % MeCN | 43.2 % MeCN | 42.5 % MeCN | – | 16 µg/mL (≈ 6.79 µM) | > 64 µg/mL | NCCCC[C@H](NC(=O)CCN(Cc1ccc(F)cc1)C(=O)[C@H](CCCCN)NC(=O)CCN(Cc1ccc(F)cc1)C(=O)[C@H](CCCCN)NC(=O)CCN(Cc1ccc(F)cc1)C(=O)[C@H](CCCCN)NC(=O)CCN(Cc1ccc(F)cc1)C(=O)[C@H](CCCCN)NC(=O)CCN(Cc1ccc(F)cc1)C(=O)[C@H](CCCCN)NC(=O)CCOCCOCCOCCOCCN)C(=O)N(CCC(=O)NCCOCCOCCOCCOCCC(N)=O)Cc1ccc(F)cc1 [Compound 5, H-sPEG4-[X]6-sPEG4-NH2] | 6.4%
>64 µg/mL | 16 µg/mL (≈ 7.44 µM) | >64 µg/mL | >64 µg/mL | >64 µg/mL | 8 to 16 µg/mL | 8 to 16 µg/mL | 16 to 32 µg/mL | 39.2 % MeCN | 41.3 % MeCN | 42.1 % MeCN | 41.4 % MeCN | 4 µg/mL (≈ 1.86 µM) | 4 to 8 µg/mL | – | NCCCC[C@H](NC(=O)CCN(Cc1ccc(F)cc1)C(=O)[C@H](CCCCN)NC(=O)CCN(Cc1ccc(F)cc1)C(=O)[C@H](CCCCN)NC(=O)CCN(Cc1ccc(F)cc1)C(=O)[C@H](CCCCN)NC(=O)CCN(Cc1ccc(F)cc1)C(=O)[C@H](CCCCN)NC(=O)CCN(Cc1ccc(F)cc1)C(=O)[C@H](CCCCN)NC(=O)COCCOCCN)C(=O)N(CCC(=O)NCCOCCOCC(N)=O)Cc1ccc(F)cc1 [Compound 4, H-sPEG2-[X]6-sPEG2-NH2] | 5.4%

— paper PMC8268887, “Peptide/β-Peptoid Hybrids with Ultrashort PEG-Like Moieties: Effects on Hydrophobicity, Antibacterial Activity and Hemolytic Properties” (International Journal of Molecular Sciences, 2021)
